Patent US20060134144A1, “Mucoadhesive composition and formulation for solubilization of insoluble drugs and preparation method thereof” (priority 2002, published 2006)

Assay: Dispersion behaviour on mixing with water
Format: physicochemical
Details: mixed with water
Experimental: The size of the emulsion particles were measured by using Malvern Zetasizer (Malvern Instruments Limited, England) after preparing the emulsion by adding 3 mL of distilled water to 2 μL of thus obtained liquid formulation. An average particle size and polydispersity were obtained by measuring values for a given formulation three times (Orr, Encyclopedia of emulsion technology, 1, 369-404, 1985). The polydispersity was obtained as the variance indicated by the logarithmic scale in the logarithmic normal distribution function. The above method in measuring the particle size and the polydispersity was used throughout the following examples.
The above composition exists as semi-solid or solid at room temperature and in a refrigerator, respectively, but as liquid at or above 40° C. Dispersion with the average particle size of 530 nm was obtained when the above composition was vortexed for 10 s in water. The absorbance at 400 nm was 2.36.
Monoolein (99.5% purity) from Nu-Chek Prep (Elysian, Minn., USA) or Myverol 18-99K (monoolein content 86.6 weight %) from Danisco A/S (Copenhagen, Denmark) were mixed with water. […] Since the cubic phase had very high viscosity and floated in water, the particle size or absorbance could not be determined.

CCCCCCCC/C=C\CCCCCCCC(=O)OCC(O)CO (stereo not shown) [Monoolein (99.5% purity), Monoolein]
dispersion behaviour in water: Cubic phases were formed instead of dispersion
